Like-named read-outs stand apart in the source and are kept apart here.
What was measured:
AB 3941 = test: Colistin potentiation, colistin-resistant isolate panel; format: cell-based, A. baumannii; details: compound at 5 μM
AB 4106 [1] = test: Broth microdilution, standalone MIC of compound; format: cell-based, A. baumannii; details: read-out: MIC of compound alone, AB 4106
Protocol: Broth microdilution method for the determination of minimum inhibitory concentrations: Bacteria were cultured for 4 to 6 hours in CAMHB and subcultured to 1.04×10^6 CFU/mL for AB 4106 and 1.96×10^6 CFU/mL for KP B9 in fresh CAMHB. To aliquots (1 mL) was added compound from stock solutions in DMSO, such that the compound concentration equaled the highest concentration tested. Samples were then dispensed (200 μL) into the first row of a 96-well microtiter plate in which all but the final row of subsequent wells were prefilled with 100 μL of the untreated bacterial subculture. The final row was filled with media to act as a sterility control and blank. Row one wells were mixed 6-7 times, then, 100 μL was withdrawn and transferred to row two. Row two wells were mixed 6-7 times followed by a 100 μL transfer from row two to row three. This procedure was used to serially dilute the rest of the rows of the microtiter plate, excluding the last prefilled row, which was used to measure growth in the absence of compound. Plates were then sealed with GLAD Press'n Seal and incubated under stationary conditions at 37 C. […] MIC values were determined as the minimum concentration required to achieve 90% growth inhibition compared to growth in untreated wells.

AB 4119 = test: Colistin potentiation, colistin-resistant isolate panel; format: cell-based, A. baumannii; details: compound at 5 μM
AB 4112 = test: as above; format: cell-based, A. baumannii; details: compound at 5 μM
[2] = system: A. baumannii 4106 (AB4106); test: Broth microdilution, colistin potentiation; format: cell-based
Protocol: (§1) Broth microdilution method for measurement of colistin potentiation: Bacteria were cultured for 4 to 6 hours in CAMHB and diluted to 1.04×10^6 CFU/mL for AB 4106 and 1.96×10^6 CFU/mL for KP B9 in fresh CAMHB. To aliquots (4 mL) was added compound from stock solutions in DMSO. One aliquot was not dosed to allow measurement of the colistin MIC in the absence of compound. A 1 mL aliquot of each sample was dosed with colistin, and from this 200 μL was dispensed into the first row of a 96-well microtiter plate in which all but the final row of subsequent wells was prefilled with 100 μL of the corresponding compound dosed bacterial suspension The final row was filled with media to act as a sterility control and blank. Row one wells were mixed 6-7 times, then, 100 μL was withdrawn and transferred to row two. Row two wells were mixed 6-7 times followed by a 100 μL transfer from row two to row three. This procedure was used to serially dilute the rest of the rows of the microtiter plate, excluding the last prefilled row, which was used to measure growth in the presence of compound alone. Plates were then sealed with GLAD
(§2) Press'n Seal and incubated under stationary conditions at 37° C. […] MIC values were determined as the minimum concentration required to achieve 90% growth inhibition compared to growth in untreated wells.

4T1 cells = test: Cell line toxicity (MTT); format: cell-based
Protocol: Cell line Toxicity: 4T1 cells (ATCC Manassas, Va.) were plated at a density of 1×10^4 cells/well in 96-well plates in Roswell Park Memorial Institute Media 1640 (RPMI)
(Gibco, Gaithersburg, MD) supplemented with 10% Fetal Bovine Serum (Gibco), 2 mM GlutaMAX (Gibco) and 50 μM 2-mercaptoethanol (Sigma Aldrich, St. Louis, Mo.) and incubated at 37 C under a 5% CO2 atmosphere in the dark for 18 h. Cell cultures were treated with serial dilutions of compounds in the presence or absence of 1 μg/mL colistin (3 replicates per condition) and incubated for an additional 18 hours. The following control conditions were used: media only (blank), 1% Triton X100 (0% cell viability), 0.5% DMSO (100% cell viability). Each condition was then treated with 10% volume of a 5 mg/mL solution of 3-(4,5-dimethylthiazol-2-yl)-2,5-diphenyltetrazolium bromide (MTT) (Sigma Aldrich) in sterile filtered 1X phosphate buffered saline (PBS) and incubated for 2 h. at 37 C in 5% CO2, after which the media was aspirated and the resulting formazan crystals were resuspended in 100 μL acidified (4 mM HCl) isopropanol. The 96-well plate was then read at 540 nm on a FLUOstar Optima (BMG Labtech Cary, NC) microplate reader. Cell viability was calculated as a percentage using the two previously mentioned controls.

AB 17978 mcr-1 = test: Colistin potentiation, colistin-resistant isolate panel; format: cell-based, A. baumannii; details: compound at 5 μM
AB 3942 = test: as above; format: cell-based, A. baumannii; details: compound at 5 μM
K. pneumoniae B9 (KPB9) = test: Broth microdilution, colistin potentiation; format: cell-based; details: for ability to break colistin resistance, KPB9: compound at 500 nM
Protocol: as §1, §2

AB4106 and KPB9 = test: Initial screen for colistin resistance suppression, statements in words for both strains; format: cell-based, A. baumannii and K. pneumoniae; details: compound at 5 μM
Protocol: as §1, §2

[3] = system: A. baumannii, K. pneumoniae, and Escherichia coli; test: Earlier finding: suppression of colistin resistance by IMD-0354; format: cell-based; details: 5 μM (1.9 μg/mL) IMD-0354
KP B9 = test: Time-kill curves with colistin; format: cell-based, K. pneumoniae; details: 5 μM compound + 0.5, 4 or 32 μg/mL colistin, FIG. 2
Protocol: (§3) Time—kill Curves: Strains were cultured overnight in CAMHB and subcultured to 1.04×10^6 CFU/mL for AB 4106 and 1.96×10^6 CFU/mL for KP B9 in fresh CAMHB. The subculture was then transferred to culture tubes in 3 mL aliquots, which were dosed with adjuvant, colistin, or adjuvant plus colistin. One aliquot was not dosed to serve as a control. All samples were then incubated at 37 C with shaking. At 2, 4, 6, 8, and 24-hour time points, 100 μL was taken from each sample and ten-fold diluted in CAMHB up to 7 times. 100 μL of diluted culture was plated on LB (Lennox) agar and incubated at 37 C overnight. The total number of bacterial colonies on each plate was determined using a SphereFlash colony counter (NEUTEC Group Inc.).

AB 4106 [4] = test: Time-kill curves with colistin; format: cell-based, A. baumannii; details: 5 μM compound + 0.5, 4 or 32 μg/mL colistin, FIG. 1
Protocol: as §3

[5] = Acinetobacter baumannii, 16 h, standalone, no colistin
[6] = compound at 5 μM, colistin alone 2048 μg/mL

SMILES | Colistin MIC fold reduction, AB 3941 (AB 3941) | MIC (AB 4106 [1]; [5]) [µM] | Colistin MIC fold reduction, AB 4119 (AB 4119) | Colistin MIC fold reduction, AB 4112 (AB 4112) | Colistin MIC fold reduction, AB 4106 ([2]; compound at 1 μM) [fold] | Colistin MIC fold reduction, AB 4106 ([2]; compound at 3 μM) [fold] | Colistin MIC fold reduction, AB 4106 [2, 6] [fold] | no measurable toxicity up to (4T1 cells; mouse, 18 h) [µM] | Colistin MIC fold reduction, AB 17978 mcr-1 (AB 17978 mcr-1) | Colistin MIC fold reduction, AB 3942 (AB 3942) | ability to break colistin resistance, KPB9 (K. pneumoniae B9 (KPB9)) | other results
O=C(Nc1cc(Br)cc(Br)c1)c1cc(Cl)ccc1O [Compound 23] | (512) fold | > 200 | (1024) fold | (1024) fold | 256 | 1024 | 1024 | > 200 | (128) fold | (≥2048) fold | retained the ability to break colistin resistance | 
O=C(Nc1cc(C(F)(F)F)cc(C(F)(F)F)c1Cl)c1cc(Cl)ccc1O [Compound 25] |  |  |  |  | 512 | 1024 | 2048 |  |  |  |  | Colistin MIC against AB 3941 (AB 3941): 1 µg/mL; MIC (AB 4106 [1]; standalone, no colistin): 50 µM; Colistin MIC against AB 4119 (AB 4119): 1 µg/mL; Colistin MIC against AB 4112 (AB 4112): 1 µg/mL; Colistin MIC against AB 4106 ([2]; in presence of compound at 1 μM): 4 µg/mL; Colistin MIC against AB 4106 ([2]; in presence of compound at 3 μM): 2 µg/mL; Colistin MIC against AB 4106 ([2]; in presence of compound at 5 μM): 1 µg/mL; toxicity compared to IMD-0354 (4T1 cells; 4T1 cells, MTT): ca. two-fold more toxic than IMD-0354; CT50 (cytotoxicity) (4T1 cells; 4T1 cells, MTT, 18 hours): 110 µM; Colistin MIC against AB 17978 mcr-1 (AB 17978 mcr-1): 0.5 µg/mL; Colistin MIC against AB 3942 (AB 3942): 1 µg/mL
O=C(Nc1ccc(C(F)(F)F)c(F)c1)c1cc(Cl)ccc1O [Compound 29, 5-chloro-N-(3-fluoro-4-(trifluoromethyl)phenyl)-2-hydroxybenzamide] | (1024) fold | > 200 | (512) fold | (2048) fold | 512 | 1024 | 2048 |  | (512) fold | (≥4096) fold | retained the ability to break colistin resistance | Colistin potentiation activity in words, compared to IMD-0354 (AB4106 and KPB9): activity equivalent to IMD-0354; colistin MIC relative to breakpoint levels, KPB9 (K. pneumoniae B9 (KPB9); compound at 250 nM, breakpoint 2 μg/mL): reduced the colistin MIC below breakpoint levels
O=C(Nc1cc(Br)cc(Br)c1)c1cc(I)ccc1O [Compound 52, N-(3,5-dibromophenyl)-2-hydroxy-5-iodobenzamide] | (1024) fold | > 200 | (512) fold | (2048) fold | 256 | 1024 | 2048 |  | (256) fold | (≥4096) fold | retained the ability to break colistin resistance | 
O=C(Nc1cc(C(F)(F)F)cc(C(F)(F)F)c1)c1cc(Cl)ccc1O [IMD-0354, reference compound] | (512) fold |  | (256) fold | (1024) fold | 256 | 512 | 1024 |  | (128) fold | (≥2048) fold |  | MIC (AB 4106 [1]; Acinetobacter baumannii, 16 h): 50 µM; reduction of the MIC of colistin [3]: ≥ 4096 fold
O=C(Nc1cc(F)cc(F)c1)c1cc(Cl)ccc1O [Compound 21] |  | > 200 |  |  | 64 | 512 | 1024 |  |  |  |  | CT50 (cytotoxicity) (4T1 cells; mouse, 18 h): 210 µM; toxicity compared to IMD-0354 (4T1 cells; mouse, 18 h): comparable toxicity to IMD-0354
O=C(Nc1cc(Cl)cc(Cl)c1)c1cc(Cl)ccc1O [Compound 22] |  | > 200 |  |  | 512 | 1024 | 1024 | > 200 |  |  |  | Time-kill: potentiation of colistin activity (KP B9): significant potentiation of colistin activity; Time-kill: potentiation of colistin activity (AB 4106 [4]): significant potentiation of colistin activity
O=C(Nc1ccc(C(F)(F)F)cc1)c1cc(Cl)ccc1O [Compound 26] |  | > 200 |  |  | 128 | 1024 | 2048 | > 200 |  |  |  | Colistin potentiation activity in words, compared to IMD-0354 (AB4106 and KPB9): activity equivalent to IMD-0354

Source: patent publication US20220356147A1, “COMPOUNDS AND METHODS FOR POTENTIATING COLISTIN ACTIVITY” (University of Notre Dame du Lac, priority 2019, published 2022)
